Common to all, as to assay: DTP human tumour cell line panel, 48 h
In experiment [1] the test system is A549 NSCLC.
Experiment [2] relates to ACHN renal.
Experiment [3] deals with COLO 205 colon.
The subject of experiment [4] is EKVX NSCLC.
The test system of experiment [5] is IGROV1 ovarian.
In experiment [6] the test system is NCI-H460 lung.
Experiment [7] relates to OVCAR-4 ovarian.
Experiment [8] has as its system SK-MEL-5 melanoma.
Experiment [9] has as its system SN12C renal.
Experiment [10] has as its system TK-10 renal.

By TGI is commonly meant the concentration at which net growth stops. Low readings indicate greater sensitivity of the cells, high ones lower sensitivity of the cells. As usually defined, the GI50 is the concentration giving 50% growth inhibition.

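Dose response: 5 concentrations. Exposure: 48 h. Format: 96-well plates. Endpoint: linear interpolation; highest concentration if not reached. At the GI50, growth is halved. The concentration for full growth arrest is given as TGI.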 Where only a bound is given, the exact number is not on record here.

Take `COC(=O)CCC(C)[C@H]1CCC2C3CC[C@@H]4CC5(CC[C@]4(C)C3C[C@H](OC(C)=O)[C@@]21C)OOC1(CCCCC1)OO5` (stereo not given in full): the TGI is above 100 µM in experiment [1]; above 100 µM in experiment [2]; above 100 µM in experiment [3]; 7.37 µM in [4]; 5.48 µM in [5]; above 100 µM in [6]. The TGI in experiment [7] was above 100 µM; in [8], 80.9 µM; in [9] it was above 100 µM; in [10], above 100 µM.

Consider `N#Cc1cc(F)cc(Oc2ccc(S(=O)(=O)C(F)F)c3c2CC(F)(F)[C@H]3O)c1`, for which the GI50 in experiment [1] was 27.9 µM; in [2] it was 30.4 µM; in experiment [3] it was 25.6 µM; in [4] it was 25.3 µM; in [5], 37.4 µM; in [6], 42.1 µM. Moreover, the GI50 in experiment [7] was 19 µM; in [8], 17.6 µM; in experiment [9] it was 28.7 µM; in experiment [10] it was 28.4 µM. Further, the TGI in experiment [1] was above 100 µM; in experiment [2] it was above 100 µM; in experiment [3], 63.1 µM; in experiment [4], above 100 µM; in [5], above 100 µM; in [6], above 100 µM. Besides, the TGI in experiment [7] was 91.7 µM; in experiment [8], 34.7 µM; in experiment [9] it was above 100 µM; in experiment [10], 82.4 µM.

With `CCOC(=O)C(Cc1ccc(N=NN(C)C)cc1)NC(=O)CC1c2ccccc2-c2ccccc21` (stereo not given), the TGI in [1], in [2], in experiment [3], in experiment [4], in [5] and in experiment [6] was above 100 µM in each case. The TGI in experiment [7], in [8], in experiment [9] and in experiment [10] was above 100 µM each time.

As to `Cc1ccc(S(=O)(=O)N/N=c2/sc3ccccc3n2C)cc1`, the TGI in experiment [1], in experiment [2], in experiment [3], in experiment [4], in experiment [5] and in experiment [6] was above 100 µM throughout. Besides, the TGI in [7], in experiment [8], in experiment [9] and in experiment [10] was above 100 µM each time.

Consider `[N-]=[N+]=CC(=O)C1CCN(c2ccccc2)C1=O` (stereo not given), for which the TGI in experiment [1], in experiment [2], in experiment [3], in [4], in experiment [5] and in [6] was above 10 µM in each case. Moreover, the TGI in experiment [7], in [8], in [9] and in experiment [10] was above 10 µM each time.

Regarding `C=CCOC(C)(C)C1=CCC(C)CC1` (stereo not given), the TGI in experiment [1], in experiment [2], in experiment [3], in experiment [4], in [5] and in experiment [6] was above 100 µM each time. For the same compound, the TGI in experiment [7], in experiment [8], in experiment [9] and in experiment [10] was above 100 µM each time.

The record behind these values is PubChem BioAssay (NCI).
